# Patent US20250018019A1, “TREATMENT OF INTERFERON DRIVEN INFLAMMATION” (The Provost, Fellows, Foundation Scholars and the other …, priority 2023, published 2025)
# Where a name gives a salt, the structure may show the parent alone.
# Key:
# mice = assay: LPS-induced inflammation model, serum IFN-β; type: in vivo, mouse; conditions: 50 mg/kg intraperitoneally 1 hour before LPS 2.5 mg/kg, blood 2 hours later
# Description: 6-week-old male mice were used, and littermates were randomly assigned to experimental groups. Compounds were resuspended in 10% DMSO followed by 90% cyclodextrin/PBS (20% w/v). Mice were injected intraperitoneally with vehicle, FHIN1 or DMF (both 50 mg/kg) at a volume of 200 μl per injection. 1 hour later, mice were injected intraperitoneally with PBS or LPS from E. coli (2.5 mg/kg, Sigma) at a volume of 100 μl per injection. 2 hours later, mice were euthanised and blood was harvested retro-orbitally. Blood was allowed to clot for 30 mins at room temperature before it was centrifuged at 5000×g for 10 mins at 4° C. The serum was removed and IFN-β concentration was determined by ELISA. DuoSet ELISA kits for IL-1β, TNFα, IL-6, IL-10, and GDF15 were purchased from R&D Systems and were carried out according to the manufacturer's instructions with appropriately diluted cell supernatants added to each plate in duplicate or triplicate. IFN-β was determined using DuoSet ELISA kit from R&D Systems or Abcam (ab252363). […] Absorbance at 450 nm was quantified using a FLUOstar Optima plate reader. Corrected absorbance values were calculated by subtracting the background absorbance, and cytokine concentrations were subsequently obtained by extrapolation from a standard curve plotted on GraphPad Prism 9.2.0.
# BMDMs = assay: Flow cytometry, CellROX and TMRM staining; type: cell-based, mouse; conditions: LPS 4 h; for mitochondrial membrane potential (MMP), TMRM staining: BMDMs pre-treated, oligomycin 10 μM, CCCP 50 μM, valinomycin 10 nM, MMF 50 or 100 μM
# Description: All compounds used DMSO as a vehicle except for 4-hydroxy tamoxifen (EtOH), NAC (PBS), and AOAA for tracing experiments (Media). LPS was used at a concentration of 100 ng/ml for indicated timepoints (2, 3, 4, 6, 8, 24, 48 h). FHIN1 (10 or 20 μM), MMF (50 or 100 μM), DMF (25 μM), AOAA (5 mM), oligomycin (10 μM), CCCP (50 μM) NAC (1 mM), and IMT1 (10 μM) pre-treatments were performed for 3 h prior the addition of LPS. Cells were treated with valinomycin (10 nM) 15 mins before LPS stimulation. Anti-CD210 or IgG control (10 μg/ml) antibodies were added to cells 1 h prior to LPS stimulation. Recombinant mouse IL-10 protein (100 ng/ml) was added to cells at the same time as LPS. Cells were treated with IFN-B1 (220 ng/ml) for 3 h. Cells were treated with C-178 (1 μM) 1 h prior to LPS stimulation or transfection with 2′3′-cGAMP (1.5 μg/ml) for 4 hrs to achieve cGAS-STING activation. Cells were treated with ODN 2088 (1 μM) for 1 hr prior to LPS stimulation or transfection with CPG ODN 1826 (1.5 μg/ml) to achieve TLR9 activation. 3 different timepoints of 4-hydroxy tamoxifen (TAM) (600 nM or 2 μM) or EtOH treatment were performed-these are specified in the individual figure legends. For ‘48 h’ treatments EtOH/TAM was added on day 5 of 6 during the BMDM differentiation protocol. On day 6 they were plated with EtOH/TAM (left overnight) and treated the following day. For ‘72 h’ treatments EtOH/TAM was added on day […] of 6 during the BMDM differentiation protocol. On day 6 they were plated with EtOH/TAM (left overnight) and treated the following day. For ‘96 h’ treatments EtOH/TAM was added on day […] of 6 during the BMDM differentiation protocol. On day 6 they were plated with EtOH/TAM and treated 2 days later.
# Cells were plated in 12-well plates and treated as desired. CellROX Green (5 μM, Thermo Fisher) or TMRM (20 nM, Thermo Fisher) was added to cells 30 mins prior to end of cell treatments. Cells were washed once in PBS and scraped into 200 μl FACS buffer (2 mM EDTA, 0.5% FCS in PBS). Acquisition of samples was performed on a BD Accuri C6 flow cytometer. The gating strategy used for all flow cytometry experiments consisted of debris exclusion by FSC-A vs SSC-A analysis and subsequent doublet exclusion by FSC-A vs FSC-H analysis. A sample gating strategy is provided in Supplementary FIG. 2. 10,000 cells was acquired per condition. Mean fluorescence intensity (MFI) was calculated for all cells in each condition using FlowJo v10.
# c-Fos = molecular target: T1, c-Fos (Mus musculus, UniProt P01101); assay: c-Fos activity assay (AP1 transcription factor assay on nuclear extracts); type: cell-based; conditions: BMDMs pre-treated 3 h, LPS 4 h
# T1 construct: nuclear extracts were isolated using a Nuclear Extraction Kit; endogenous in cells; host or cells: mouse bone-marrow-derived macrophages (BMDMs), nuclear extract
# T1 sequence (P01101 whole entry): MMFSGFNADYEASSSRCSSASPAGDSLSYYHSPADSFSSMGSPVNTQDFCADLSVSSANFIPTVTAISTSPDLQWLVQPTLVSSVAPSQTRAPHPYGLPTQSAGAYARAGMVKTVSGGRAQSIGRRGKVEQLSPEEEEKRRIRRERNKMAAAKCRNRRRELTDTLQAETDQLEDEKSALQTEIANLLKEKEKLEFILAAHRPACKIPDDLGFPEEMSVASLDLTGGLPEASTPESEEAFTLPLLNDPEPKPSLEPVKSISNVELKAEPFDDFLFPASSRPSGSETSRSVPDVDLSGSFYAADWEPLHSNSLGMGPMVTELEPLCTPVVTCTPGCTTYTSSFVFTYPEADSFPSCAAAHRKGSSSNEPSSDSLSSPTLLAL
# T1 sequence (P05627 whole entry partner): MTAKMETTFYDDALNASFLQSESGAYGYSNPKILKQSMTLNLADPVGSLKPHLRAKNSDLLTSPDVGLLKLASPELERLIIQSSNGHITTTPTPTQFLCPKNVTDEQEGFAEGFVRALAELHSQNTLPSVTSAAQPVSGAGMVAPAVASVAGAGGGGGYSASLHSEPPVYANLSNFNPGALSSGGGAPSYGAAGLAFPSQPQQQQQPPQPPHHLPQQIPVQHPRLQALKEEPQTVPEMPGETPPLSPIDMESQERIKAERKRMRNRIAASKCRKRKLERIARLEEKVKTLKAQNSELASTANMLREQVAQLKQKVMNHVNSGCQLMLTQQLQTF
# Description: BMDMs from 3 mice were plated in 10 cm dishes at 0.5×10^6 cells/mL and left overnight. Cells were pre-treated with FHIN1 or DMF (3 h) prior to LPS stimulation (4 h). Upon harvesting, nuclear extracts were isolated using a Nuclear Extraction Kit (ab113474) purchased from Abcam. Nuclear extracts were quantified via BCA assay and standardised. c-Fos relative activity was then quantified using the AP1 transcription factor assay purchased from Abcam (Ab207196) according to the manufacturers protocol.
c-Fos activation (c-Fos),SMILES,LPS-induced IFN-β release into the serum (mice),"mitochondrial membrane potential (MMP), TMRM staining (BMDMs)",reactive oxygen species (ROS) production (CellROX MFI) (BMDMs; BMDMs pre-treated 3 h)
strongly impaired,"COC(=O)/C=C/C(=O)OC [DMF, dimethyl fumarate]",no effect,no effect,
strongly impaired,"CCOC(=O)[C@@]12CCCC=C1N(Cc1ccc(-c3ccccc3)cc1)C(=O)[C@H]2CC(=O)NC [FHIN1, Fumarate hydratase-IN-1]",increased,significantly increased staining,increased
